{"source": "patent US7262185B2", "about": "“Benzazepine derivative, process for producing the same, and use” (Takeda Chemical Industries Ltd., priority 2001, dated 2007)", "key": {"[1]": {"molecular_target": "T1, human CCR5 chemokine receptor (Homo sapiens, UniProt P51681)", "T1 construct": "expressed in transfected cells", "T1 sequence (P51681 whole entry)": "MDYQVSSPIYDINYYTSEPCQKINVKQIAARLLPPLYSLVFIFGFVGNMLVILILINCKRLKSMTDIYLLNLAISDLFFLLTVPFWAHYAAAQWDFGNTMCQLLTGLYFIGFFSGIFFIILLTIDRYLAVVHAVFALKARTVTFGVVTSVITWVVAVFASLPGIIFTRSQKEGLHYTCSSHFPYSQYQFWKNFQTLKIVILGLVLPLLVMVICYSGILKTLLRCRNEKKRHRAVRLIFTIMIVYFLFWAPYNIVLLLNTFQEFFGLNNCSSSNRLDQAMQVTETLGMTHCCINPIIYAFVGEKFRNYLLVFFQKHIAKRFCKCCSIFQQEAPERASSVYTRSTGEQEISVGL", "assay": "Inhibition of [125I]-RANTES binding to CCR5/CHO cells (CCR5 antagonistic activity)", "conditions": "40 min, test compound 1 μM, [125I]-RANTES as ligand, room temperature, read-out: Binding Inhibitory Ratio (%)", "how_it_was_run": "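CCR5-transfected CHO-K1 cells, 5×10^4/well cultured 24 h, incubated with test compound (1 μM) and [125I]-RANTES ([…]) in Ham's F12 with 0.5% BSA, 20 mM HEPES pH 7.2, 40 min at room temperature. Bound radioactivity counted after cold PBS washes; percent inhibition of binding reported.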"}}, "data": [{"smiles": "CCCCOCCOc1ccc(-c2ccc3c(c2)C=C(C(=O)Nc2ccc(CCCn4cnnc4)cc2)CCN3CC(C)C)cc1", "note": "[Compound 63, 7-[4-(2-butoxyethoxy)phenyl]-1-isobutyl-N-[4-[3-(4H-1,2,4-triazol-4-yl)propyl]phenyl]-2,3-dihydro-1H-1-benzazepine-4-carboxamide]", "values": [{"measurement": "inhibition at 1 µM", "setting": "[1]", "result": 96, "unit": "%"}, {"measurement": "melting point", "result": "165 to 167", "unit": "°C"}]}]}
